Experimental data: ChEMBL document CHEMBL1614632, “Trend analysis of a database of intravenous pharmacokinetic parameters in humans for 670 drug compounds” (Drug Metab Dispos, 2008)

How the values were obtained:
[1] = clinical; conditions: human, in vivo, iv, t1/2
[2] = clinical; conditions: human, in vivo, iv
[3] = clinical; conditions: human, in vivo, iv, Vdss
[4] = clinical; conditions: human, in vivo, iv, CL

SMILES | half-life [1] | MRT [2] | Vd [3] | clearance [4]
Cc1cc(NC(=O)C2=C(O)c3ccccc3S(=O)(=O)N2C)no1 [ISOXICAM] | 33 h | 44 h | 0.19 L/kg | 0.07 mL/min/kg
C/C(=C\c1csc(C)n1)[C@@H]1C[C@@H]2O[C@]2(C)CCC[C@H](C)[C@H](O)[C@@H](C)C(=O)C(C)(C)[C@@H](O)CC(=O)N1 [IXABEPILONE] | 17 h | 18 h | 11 L/kg | 10 mL/min/kg
NC[C@H]1O[C@H](O[C@H]2[C@H](O)[C@@H](O[C@H]3O[C@H](CO)[C@@H](O)[C@H](N)[C@H]3O)[C@H](N)C[C@@H]2N)[C@H](O)[C@@H](O)[C@@H]1O [KANAMYCIN] | 2.1 h | 3.1 h | 0.26 L/kg | 1.4 mL/min/kg
CCC(=O)C1(c2cccc(O)c2)CCN(C)CC1 [KETOBEMIDONE] | 2.3 h | 0.87 h | 0.48 L/kg | 9.2 mL/min/kg
Cc1c(OCC(F)(F)F)ccnc1C[S+]([O-])c1nc2ccccc2[nH]1 (stereo not drawn) [LANSOPRAZOLE] | 1 h | 1.1 h | 0.28 L/kg | 4.4 mL/min/kg
Nc1nc2c(c(=O)[nH]1)N(C=O)C(CNc1ccc(C(=O)N[C@@H](CCC(=O)O)C(=O)O)cc1)CN2 (stereo partly drawn) [LEUCOVORIN] | 1.3 h | 0.8 h | 0.25 L/kg | 5.8 mL/min/kg
C[C@H]1COc2c(N3CCN(C)CC3)c(F)cc3c(=O)c(C(=O)O)cn1c23.C[C@H]1COc2c(N3CCN(C)CC3)c(F)cc3c(=O)c(C(=O)O)cn1c23.O [LEVOFLOXACIN] | 8.8 h | 11 h | 1.2 L/kg | 1.9 mL/min/kg
COc1ccc2c(c1)N(C[C@H](C)CN(C)C)c1ccccc1S2 [LEVOMEPROMAZINE] | 30 h | 21 h | 12 L/kg | 9.9 mL/min/kg
CC(=O)NC[C@H]1CN(c2ccc(N3CCOCC3)c(F)c2)C(=O)O1 [LINEZOLID] | 4.5 h | 5.4 h | 0.58 L/kg | 1.8 mL/min/kg
CN1C(=O)C(O)N=C(c2ccccc2Cl)c2cc(Cl)ccc21 (stereo not drawn) [LORMETAZEPAM] | 4.9 h | 6.7 h | 1.6 L/kg | 4 mL/min/kg
CCCCc1nc(Cl)c(CO)n1Cc1ccc(-c2ccccc2-c2nn[nH]n2)cc1 [LOSARTAN] | 1.8 h | 0.75 h | 0.37 L/kg | 8.2 mL/min/kg
CC[C@H](C)C(=O)O[C@H]1C[C@@H](C)C=C2C=C[C@H](C)[C@H](CC[C@@H]3C[C@@H](O)CC(=O)O3)[C@H]21 [LOVASTATIN] | 1.4 h | 1.3 h | 0.87 L/kg | 7.2 mL/min/kg
CCCCCN(CCCOC)C(=O)C(CCC(=O)O)NC(=O)c1ccc(Cl)c(Cl)c1 (stereo not drawn) [LOXIGLUMIDE] | 5.2 h | 4 h | 0.24 L/kg | 1 mL/min/kg
COC(=O)Nc1nc2ccc(C(=O)c3ccccc3)cc2[nH]1 [MEBENDAZOLE] | 1.1 h | 1.3 h | 1.2 L/kg | 15 mL/min/kg
CC(CCc1ccc2c(c1)OCO2)NCC(O)c1ccc(O)c(C(N)=O)c1 (stereo not drawn) [MEDROXALOL] | 11 h | 8.2 h | 7.9 L/kg | 16 mL/min/kg
CN(C)C(=N)N=C(N)N [METFORMIN] | 1.7 h | 1.4 h | 0.64 L/kg | 7.4 mL/min/kg
Cn1cc[nH]c1=S [METHIMAZOLE] | 2.4 h | 3.8 h | 0.86 L/kg | 3.7 mL/min/kg
C[C@](N)(Cc1ccc(O)c(O)c1)C(=O)O [METHYLDOPA] | 5.9 h | 3.3 h | 0.69 L/kg | 3.5 mL/min/kg
CCN(CC)CCNC(=O)c1cc(Cl)c(N)cc1OC [METOCLOPRAMIDE] | 7.2 h | 9.4 h | 3.2 L/kg | 5.7 mL/min/kg

SMILES | half-life [1] | MRT [2] | Vd [3] | clearance [4]
Cc1ccccc1N1C(=O)c2cc(S(N)(=O)=O)c(Cl)cc2NC1C (stereo not drawn) [METOLAZONE] | 20 h | 19 h | 1.6 L/kg | 1.4 mL/min/kg
Cc1ncc([N+](=O)[O-])n1CCO [METRONIDAZOLE] | 7.1 h | 7.8 h | 0.4 L/kg | 0.85 mL/min/kg
OCCN1C[C@H](O)[C@@H](O)[C@H](O)[C@H]1CO [MIGLITOL] | 2.3 h | 2.7 h | 0.28 L/kg | 1.7 mL/min/kg
Cc1[nH]c(=O)c(C#N)cc1-c1ccncc1 [MILRINONE] | 0.8 h | 0.67 h | 0.25 L/kg | 6.2 mL/min/kg
O=C(NCCN1CCOCC1)c1ccc(Cl)cc1 [MOCLOBEMIDE] | 1.5 h | 1.8 h | 1.1 L/kg | 10 mL/min/kg
CC(C)(O)c1ccccc1CC[C@@H](SCC1(CC(=O)O)CC1)c1cccc(/C=C/c2ccc3ccc(Cl)cc3n2)c1 [MONTELUKAST] | 5 h | 3.8 h | 0.15 L/kg | 0.68 mL/min/kg
CN1CC[C@]23c4c5ccc(O)c4O[C@H]2[C@@H](O[C@@H]2O[C@H](C(=O)O)[C@@H](O)[C@H](O)[C@H]2O)C=C[C@H]3[C@H]1C5 [MORPHINE GLUCURONIDE] | 1.4 h | 0.91 h | 0.12 L/kg | 2.2 mL/min/kg
COc1nc(C)nc(Cl)c1N=C1NCCN1 [MOXONIDINE] | 2.2 h | 2.7 h | 1.8 L/kg | 11 mL/min/kg
Oc1ccc2c3c1O[C@H]1[C@@H](O)CC[C@@]4(O)[C@@H](C2)N(CC2CCC2)CC[C@]314 [NALBUPHINE] | 3.7 h | 3.5 h | 4.6 L/kg | 22 mL/min/kg
CC(C)[C@H]1CC[C@H](C(=O)N[C@H](Cc2ccccc2)C(=O)O)CC1 [NATEGLINIDE] | 1.5 h | 1.4 h | 0.15 L/kg | 1.8 mL/min/kg
OC(CNCC(O)C1CCc2cc(F)ccc2O1)C1CCc2cc(F)ccc2O1 (stereo not drawn) [NEBIVOLOL] | 10 h | 13 h | 11 L/kg | 14 mL/min/kg
CN1CCOC(c2ccccc2)c2ccccc2C1 (stereo not drawn) [NEFOPAM] | 5 h | 8.1 h | 5.6 L/kg | 12 mL/min/kg
COc1nc(N)nc2c1ncn2[C@@H]1O[C@H](CO)[C@@H](O)[C@@H]1O [NELARABINE] | 0.5 h | 1 h | 4.9 L/kg | 81 mL/min/kg
CN(C)C(=O)Oc1cccc([N+](C)(C)C)c1.[Br-] [NEOSTIGMINE BROMIDE] | 1.3 h | 1.3 h | 0.74 L/kg | 9.2 mL/min/kg
Cc1ccnc2c1NC(=O)c1cccnc1N2C1CC1 [NEVIRAPINE] | 53 h | 81 h | 1.3 L/kg | 0.3 mL/min/kg
COC(=O)C1=C(C)NC(C)=C(C(=O)OCC(C)C)C1c1ccccc1[N+](=O)[O-] (stereo not drawn) [NISOLDIPINE] | 11 h | 6.5 h | 5.5 L/kg | 15 mL/min/kg
O=C1CN=C(c2ccccc2)c2cc([N+](=O)[O-])ccc2N1 [NITRAZEPAM] | 26 h | 33 h | 1.7 L/kg | 0.86 mL/min/kg
CNC(=C[N+](=O)[O-])NCCSCc1csc(CN(C)C)n1 [NIZATIDINE] | 1.5 h | 1.7 h | 1 L/kg | 9.8 mL/min/kg
